From patent US4950647A, “T cell immunopotentiator” (Nucleic Acid Research Institute, priority 1988, dated 1990)

Legend:
[1] = Immune system enhancement / suppression; settings: β analog: at the same concentrations at which the compound is immunostimulatory
[2] = tested on: macrophages and NK cells; settings: cited from earlier work
[3] = tested on: B cells; settings: predominantly a subset of mature B lymphocytes; cited from earlier work
[4] = tested on: human lymphocytes (peripheral blood mononuclear cells); settings: known; cited from earlier work

SMILES	immunosuppressive / immune enhancing effect [1]	activation of macrophages and NK cells [2]	stimulation of B cell proliferation [3]	activation of lymphocytes to proliferate [4]
Nc1cc2c(ncn2[C@H]2C[C@H](O)[C@@H](CO)O2)c(=O)[nH]1 [2'-deoxy-3-deazaguanosine]	immunosuppressive			
Nc1nc2c(ncn2[C@H]2C[C@H](O)[C@@H](CO)O2)c(=O)[nH]1 [2'-deoxyguanosine]	not immune system enhancers			
Nc1cc2c(ncn2[C@@H]2O[C@H](CO)[C@@H](O)[C@H]2O)c(=O)[nH]1 [3-deazaguanosine]	not immune system enhancers			
Nc1nc2c(nc(Br)n2[C@@H]2O[C@H](CO)[C@@H](O)[C@H]2O)c(=O)[nH]1 [8-bromoguanosine]		activate macrophages and NK cells	stimulate proliferation of B cells	activate lymphocytes to proliferate
Nc1nc2c(nc(S)n2[C@@H]2O[C@H](CO)[C@@H](O)[C@H]2O)c(=O)[nH]1 [8-mercaptoguanosine]			stimulate proliferation of B cells	activate lymphocytes to proliferate
